According to patent US12617779B2, “Self degradation-type CDK9 inhibitor prodrug and liposome encapsulating same” (Sumitomo Pharma Co., Ltd., priority 2021, dated 2026):

Assay: Evaluation of conversion rate to active form in buffer solution (Experimental Example 1)
Assay type: physicochemical
Details: for Stability in buffer solution at pH 5 / Conversion to Alvocidib at pH 5 within 3 hours: pH 5, 37° C.; for Stability in buffer solution at pH 5: up to 2 or 3 hours
Protocol: For Examples 1 to 16 and Comparative Examples 1 to 14, the attrition rate of the test compound and the conversion rate of the test compound to Alvocidib in a buffer solution were calculated by the following method.
Examples 1 to 16 and Comparative Examples 1 to 14 were each left in buffer solutions adjusted to pH 5.0, 5.5, 6.0, 6.5, 7.0 and 7.4, respectively, at a concentration of 25 umol/L at 37° C. After 0, 0.5, 1, 2 and 3 hours, the residual rates of the compounds of Examples […] and the production rate of Alvocidib were determined by HPLC.
The buffer solutions used at each pH are as follows. • pH 5.0: 50 mM citrate buffer solution (pH 5.0) • pH 5.5: 50 mM citrate buffer solution (pH 5.5) • pH 6.0: 50 mM phosphate buffer solution (pH 6.0) • pH 6.5: 50 mM phosphate buffer solution (pH 6.5) • pH 7.0: 50 mM phosphate buffer solution (pH 7.0) • pH 7.4: 50 mM phosphate buffer solution (pH 7.4)
The measurement conditions for HPLC are as follows.

[1] = pH5.0, 0 hr, 37° C., 25 umol/L in buffer solution
[2] = pH5.0, 0.5 hr, 37° C., 25 umol/L in buffer solution
[3] = pH5.0, 1 hr, 37° C., 25 umol/L in buffer solution
[4] = pH5.0, 2 hr, 37° C., 25 umol/L in buffer solution
[5] = pH5.0, 3 hr, 37° C., 25 umol/L in buffer solution
[6] = pH5.5, 0 hr, 37° C., 25 umol/L in buffer solution
[7] = pH5.5, 0.5 hr, 37° C., 25 umol/L in buffer solution
[8] = pH5.5, 1 hr, 37° C., 25 umol/L in buffer solution
[9] = pH5.5, 2 hr, 37° C., 25 umol/L in buffer solution
[10] = pH5.5, 3 hr, 37° C., 25 umol/L in buffer solution
[11] = pH6.0, 0 hr, 37° C., 25 umol/L in buffer solution
[12] = pH6.0, 0.5 hr, 37° C., 25 umol/L in buffer solution
[13] = pH6.0, 1 hr, 37° C., 25 umol/L in buffer solution
[14] = pH6.0, 2 hr, 37° C., 25 umol/L in buffer solution
[15] = pH6.0, 3 hr, 37° C., 25 umol/L in buffer solution
[16] = pH6.5, 0 hr, 37° C., 25 umol/L in buffer solution
[17] = pH6.5, 0.5 hr, 37° C., 25 umol/L in buffer solution
[18] = pH6.5, 1 hr, 37° C., 25 umol/L in buffer solution
[19] = pH6.5, 2 hr, 37° C., 25 umol/L in buffer solution
[20] = pH6.5, 3 hr, 37° C., 25 umol/L in buffer solution
[21] = pH7.0, 0 hr, 37° C., 25 umol/L in buffer solution
[22] = pH7.0, 0.5 hr, 37° C., 25 umol/L in buffer solution
[23] = pH7.0, 1 hr, 37° C., 25 umol/L in buffer solution
[24] = pH7.0, 2 hr, 37° C., 25 umol/L in buffer solution
[25] = pH7.0, 3 hr, 37° C., 25 umol/L in buffer solution
[26] = pH7.4, 0 hr, 37° C., 25 umol/L in buffer solution
[27] = pH7.4, 0.5 hr, 37° C., 25 umol/L in buffer solution
[28] = pH7.4, 1 hr, 37° C., 25 umol/L in buffer solution
[29] = pH7.4, 2 hr, 37° C., 25 umol/L in buffer solution
[30] = pH7.4, 3 hr, 37° C., 25 umol/L in buffer solution

CCNC(=O)Oc1cc(O)c2c(=O)cc(-c3ccccc3Cl)oc2c1[C@H]1CCN(C)C[C@H]1O [Comparative Example 1, reference compound]
Production rate of Alvocidib [1]: 8.4%
Residual rate [1]: 91.6%
Stability in buffer solution at pH 5: unstable
Conversion to Alvocidib at pH 5 within 3 hours: mostly converted to Alvocidib
Production rate of Alvocidib [2]: 37.9%
Residual rate [2]: 62.1%
Production rate of Alvocidib [3]: 58.5%
Residual rate [3]: 41.5%
Production rate of Alvocidib [4]: 82.1%
Residual rate [4]: 17.9%
Production rate of Alvocidib [5]: 91.8%
Residual rate [5]: 8.2%
Production rate of Alvocidib [6]: 8.8%
Residual rate [6]: 91.2%
Production rate of Alvocidib [7]: 74.7%
Residual rate [7]: 25.3%
Production rate of Alvocidib [8]: 92.7%
Residual rate [8]: 7.3%
Production rate of Alvocidib [9]: 98.9%
Residual rate [9]: 1.1%
Production rate of Alvocidib [10]: 99.3%
Residual rate [10]: 0.7%
Production rate of Alvocidib [11]: 10.1%
Residual rate [11]: 89.9%
Production rate of Alvocidib [12]: 96.3%
Residual rate [12]: 3.7%
Production rate of Alvocidib [13]: 98.3%
Residual rate [13]: 1.5%
Production rate of Alvocidib [14]: 98.5%
Residual rate [14]: 1.3%
Production rate of Alvocidib [15]: 99.0%
Residual rate [15]: 1.0%
Production rate of Alvocidib [16]: 12.9%
Residual rate [16]: 87.1%
Production rate of Alvocidib [17]: 98.7%
Residual rate [17]: 1.3%
Production rate of Alvocidib [18]: 99.0%
Residual rate [18]: 1.0%
Production rate of Alvocidib [19]: 98.9%
Residual rate [19]: 1.1%
Production rate of Alvocidib [20]: 99.2%
Residual rate [20]: 0.8%
Production rate of Alvocidib [21]: 22.2%
Residual rate [21]: 77.8%
Production rate of Alvocidib [22]: 99.0%
Residual rate [22]: 1.0%
Production rate of Alvocidib [23]: 99.1%
Residual rate [23]: 0.9%
Production rate of Alvocidib [24]: 98.8%
Residual rate [24]: 1.0%
Production rate of Alvocidib [25]: 99.1%
Residual rate [25]: 0.9%
Production rate of Alvocidib [26]: 40.2%
Residual rate [26]: 59.8%
Production rate of Alvocidib [27]: 99.1%
Residual rate [27]: 0.9%
Production rate of Alvocidib [28]: 98.9%
Residual rate [28]: 1.1%
Production rate of Alvocidib [29]: 99.1%
Residual rate [29]: 1.0%
Production rate of Alvocidib [30]: 99.3%
Residual rate [30]: 0.7%

CNC(=O)Oc1cc(O)c2c(=O)cc(-c3ccccc3Cl)oc2c1[C@H]1CCN(C)C[C@H]1O [Comparative Example 2, reference compound]
Production rate of Alvocidib (pH5.0, 0 hr): 2.0%
Residual rate (pH5.0, 0 hr): 96.6%
Stability in buffer solution at pH 5: unstable
Conversion to Alvocidib at pH 5 within 3 hours: mostly converted to Alvocidib
Production rate of Alvocidib (pH5.0, 0.5 hr): 31.8%
Residual rate (pH5.0, 0.5 hr): 66.9%
Production rate of Alvocidib (pH5.0, 1 hr): 53.2%
Residual rate (pH5.0, 1 hr): 45.1%
Production rate of Alvocidib (pH5.0, 2 hr): 79.0%
Residual rate (pH5.0, 2 hr): 19.3%
Production rate of Alvocidib (pH5.0, 3 hr): 90.0%
Residual rate (pH5.0, 3 hr): 8.5%
Production rate of Alvocidib (pH5.5, 0 hr): 2.4%
Residual rate (pH5.5, 0 hr): 96.4%
Production rate of Alvocidib (pH5.5, 0.5 hr): 70.5%
Residual rate (pH5.5, 0.5 hr): 28.0%
Production rate of Alvocidib (pH5.5, 1 hr): 90.8%
Residual rate (pH5.5, 1 hr): 7.5%
Production rate of Alvocidib (pH5.5, 2 hr): 97.6%
Residual rate (pH5.5, 2 hr): 0.6%
Production rate of Alvocidib (pH5.5, 3 hr): 98.6%
Residual rate (pH5.5, 3 hr): 0.0%
Production rate of Alvocidib (pH6.0, 0 hr): 3.3%
Residual rate (pH6.0, 0 hr): 95.1%
Production rate of Alvocidib (pH6.0, 0.5 hr): 95.7%
Residual rate (pH6.0, 0.5 hr): 2.5%
Production rate of Alvocidib (pH6.0, 1 hr): 98.2%
Residual rate (pH6.0, 1 hr): 0.0%
Production rate of Alvocidib (pH6.0, 2 hr): 98.3%
Residual rate (pH6.0, 2 hr): 0.0%
Production rate of Alvocidib (pH6.0, 3 hr): 98.6%
Residual rate (pH6.0, 3 hr): 0.0%
Production rate of Alvocidib (pH6.5, 0 hr): 7.1%
Residual rate (pH6.5, 0 hr): 91.5%
Production rate of Alvocidib (pH6.5, 0.5 hr): 98.3%
Residual rate (pH6.5, 0.5 hr): 0.0%
Production rate of Alvocidib (pH6.5, 1 hr): 98.3%
Residual rate (pH6.5, 1 hr): 0.0%
Production rate of Alvocidib (pH6.5, 2 hr): 98.5%
Residual rate (pH6.5, 2 hr): 0.0%
Production rate of Alvocidib (pH6.5, 3 hr): 98.2%
Residual rate (pH6.5, 3 hr): 0.0%
Production rate of Alvocidib (pH7.0, 0 hr): 17.0%
Residual rate (pH7.0, 0 hr): 81.8%
Production rate of Alvocidib (pH7.0, 0.5 hr): 98.6%
Residual rate (pH7.0, 0.5 hr): 0.0%
Production rate of Alvocidib (pH7.0, 1 hr): 98.3%
Residual rate (pH7.0, 1 hr): 0.0%
Production rate of Alvocidib (pH7.0, 2 hr): 98.3%
Residual rate (pH7.0, 2 hr): 0.0%
Production rate of Alvocidib (pH7.0, 3 hr): 98.3%
Residual rate (pH7.0, 3 hr): 0.0%
Production rate of Alvocidib (pH7.4, 0 hr): 34.5%
Residual rate (pH7.4, 0 hr): 63.9%
Production rate of Alvocidib (pH7.4, 0.5 hr): 98.4%
Residual rate (pH7.4, 0.5 hr): 0.0%
Production rate of Alvocidib (pH7.4, 1 hr): 98.2%
Residual rate (pH7.4, 1 hr): 0.0%
Production rate of Alvocidib (pH7.4, 2 hr): 98.5%
Residual rate (pH7.4, 2 hr): 0.0%
Production rate of Alvocidib (pH7.4, 3 hr): 98.5%
Residual rate (pH7.4, 3 hr): 0.0%

CNC(=O)O[C@@H]1CN(C)CC[C@@H]1c1c(O)cc(O)c2c(=O)cc(-c3ccccc3Cl)oc12 [Comparative Example 5, reference compound]
Production rate of Alvocidib (pH5.0, 0 hr): 0.0%
Residual rate (pH5.0, 0 hr): 93.9%
Production rate of Alvocidib (pH5.0, 0.5 hr): 0.0%
Residual rate (pH5.0, 0.5 hr): 93.5%
Production rate of Alvocidib (pH5.0, 1 hr): 0.0%
Residual rate (pH5.0, 1 hr): 93.4%
Production rate of Alvocidib (pH5.0, 2 hr): 0.0%
Residual rate (pH5.0, 2 hr): 93.9%
Production rate of Alvocidib (pH5.0, 3 hr): 0.0%
Residual rate (pH5.0, 3 hr): 93.9%
Production rate of Alvocidib (pH5.5, 0 hr): 0.0%
Residual rate (pH5.5, 0 hr): 93.9%
Production rate of Alvocidib (pH5.5, 0.5 hr): 0.0%
Residual rate (pH5.5, 0.5 hr): 93.8%
Production rate of Alvocidib (pH5.5, 1 hr): 0.0%
Residual rate (pH5.5, 1 hr): 93.8%
Production rate of Alvocidib (pH5.5, 2 hr): 0.0%
Residual rate (pH5.5, 2 hr): 94.0%
Production rate of Alvocidib (pH5.5, 3 hr): 0.0%
Residual rate (pH5.5, 3 hr): 93.6%
Production rate of Alvocidib (pH6.0, 0 hr): 0.0%
Residual rate (pH6.0, 0 hr): 93.5%
Production rate of Alvocidib (pH6.0, 0.5 hr): 0.0%
Residual rate (pH6.0, 0.5 hr): 94.0%
Production rate of Alvocidib (pH6.0, 1 hr): 0.0%
Residual rate (pH6.0, 1 hr): 93.5%
Production rate of Alvocidib (pH6.0, 2 hr): 0.0%
Residual rate (pH6.0, 2 hr): 93.9%
Production rate of Alvocidib (pH6.0, 3 hr): 0.0%
Residual rate (pH6.0, 3 hr): 94.0%
Production rate of Alvocidib (pH6.5, 0 hr): 0.0%
Residual rate (pH6.5, 0 hr): 93.5%
Production rate of Alvocidib (pH6.5, 0.5 hr): 0.0%
Residual rate (pH6.5, 0.5 hr): 93.9%
Production rate of Alvocidib (pH6.5, 1 hr): 0.0%
Residual rate (pH6.5, 1 hr): 93.6%
Production rate of Alvocidib (pH6.5, 2 hr): 0.0%
Residual rate (pH6.5, 2 hr): 93.5%
Production rate of Alvocidib (pH6.5, 3 hr): 0.0%
Residual rate (pH6.5, 3 hr): 93.5%
Production rate of Alvocidib (pH7.0, 0 hr): 0.0%
Residual rate (pH7.0, 0 hr): 93.9%
Production rate of Alvocidib (pH7.0, 0.5 hr): 0.0%
Residual rate (pH7.0, 0.5 hr): 93.4%
Production rate of Alvocidib (pH7.0, 1 hr): 0.0%
Residual rate (pH7.0, 1 hr): 93.8%
Production rate of Alvocidib (pH7.0, 2 hr): 0.0%
Residual rate (pH7.0, 2 hr): 93.9%
Production rate of Alvocidib (pH7.0, 3 hr): 0.0%
Residual rate (pH7.0, 3 hr): 93.3%
Production rate of Alvocidib (pH7.4, 0 hr): 0.0%
Residual rate (pH7.4, 0 hr): 93.3%
Conversion to Alvocidib at pH 7.4 (pH 7.4, 37° C., up to 3 hours): slowly converted to Alvocidib
Production rate of Alvocidib (pH7.4, 0.5 hr): 0.0%
Residual rate (pH7.4, 0.5 hr): 93.9%
Production rate of Alvocidib (pH7.4, 1 hr): 0.0%
Residual rate (pH7.4, 1 hr): 93.9%
Production rate of Alvocidib (pH7.4, 2 hr): 0.0%
Residual rate (pH7.4, 2 hr): 93.4%
Production rate of Alvocidib (pH7.4, 3 hr): 0.0%
Residual rate (pH7.4, 3 hr): 93.4%
